# Source: patent US6211155A, “Peptide conjugates derived from thymic hormones, their use as a medicament and compositions containing them” (Institut European de Biologie Cellulaire, priority 1995, dated 2001)
# Where no end group is shown, it is not given here.
# What was measured:
# Ia+ Langerhans cells = experiment: Ia+ Langerhans cell density after topical application to mouse ear; assay type: in vivo, C57-BL/6 mice; details: for Number of Ia+ cells per mm^2 of epidermis, batch 1 / Number of Ia+ cells per mm^2 of epidermis, batch 2 / Number of Ia+ cells per mm^2 of epidermis, batch 3 / Number of Ia+ cells per mm^2 of epidermis, batch 4 / Number of Ia+ cells per mm^2 of epidermis, Mean: C 57 BL/6 mice; for Number of Ia+ cells per mm^2 of epidermis, Mean: 4 batches; for Ia+ cells %: relative to PG controls
# Description: (§1) I--Experimental Samples--Code: ETF
# (§2) In solution in propylene glycol at a concentration of 10^-5 M/ml
# (§3) 5 to 7-week-old male C 57-BL/6 mice, which are divided into groups of 4 per cage, and which have free access to water and food and which are subjected to a photoperiod of 12 h of light per 24 hours, are given a topical application of the peptide in propylene glycol (50 μl vol) on the dorsal surface of the ear daily for 5 consecutive days.
# (§4) The animals are sacrificed on day 6. The ears are removed, with the dorsal and ventral surfaces being separated.
# (§5) The tissues of the dorsal surface are immersed in Na EDTA (0.020 M) at 37° C. for 2 h.
# (§6) After incubation, the epidermis is removed in the form of an intact sheet, fixed with acetone and rehydrated in PBS (phosphate buffer).
# (§7) The Thy 1-2+ and Ia+ EDC (epidermal dendritic cells) are identified by indirect immunofluorescence double labeling.
# (§8) In the case of each epidermal sheet, the number of cells per mm^2 is determined using the peripheral regions of the same surface.
# The EDC (epidermal dendritic cells) carrying the Ia+ marker were identified using an anti-Ia+ monoclonal antibody.
# The epidermal sheets are fixed with acetone and then incubated, at 37° C. for 1 h, in the presence of the anti-Ia+ monoclonal antibody, which has been labeled by the indirect immunoperoxidase method (Kit).
# After having been incubated at 37° C. for 10 minutes with a solution of aminoethylcarbazole, the preparation is washed with PBS.
# (§9) In the case of each epidermal sheet, the number of Ia+ Langerhans cells or Thy 1.2+ EDCs per square millimeter was determined by means of immunofluorescence, using a confocal Zeiss microscope which was equipped for this purpose, in four peripheral areas of the same surface. At least four animals were studied in each of the groups. The density of Ia+ Langerhans cells and Thy 1.2+ EDCs is shown for each measurement.
# [1] = tested on: Thy 1.2+ thymocytes of the epidermis; experiment: Thy 1.2+ epidermal cell density after topical application to mouse ear (immunofluorescence); assay type: in vivo, C57-BL/6 mice; details: for Number of Thy 1.2+ cells per mm^2 of epidermis, batch 1 / Number of Thy 1.2+ cells per mm^2 of epidermis, batch 2 / Number of Thy 1.2+ cells per mm^2 of epidermis, batch 3 / Number of Thy 1.2+ cells per mm^2 of epidermis, batch 4 / Number of Thy 1.2+ cells per mm^2 of epidermis, Mean: C 57 BL/6 mice; for Number of Thy 1.2+ cells per mm^2 of epidermis, Mean: 4 batches; for Thy 1.2+ cells % T: relative to PG controls
# Description: as §1, §2, §3, §4, §5, §6, §7, §8
# The Thy 1.2+ EDC were identified by indirect immunofluorescence double labeling. The epidermal sheets were fixed with acetone and then rehydrated in PBS.
# The tissues were labeled simultaneously, at 4° C. for 16 h, with mouse anti-Thy 1.2+ antibody which was diluted 1:100. The tissue samples were washed three times in PBS for 60 min and then incubated, at 37° C. for 60 min, either with goat antimouse antibody which was coupled to rhodamine and diluted 1:20, or with goat antirabbit antibody which was coupled to fluorescein (fluorescine and diluted 1:20 in PBS. The tissues were then washed in PBS before being mounted as previously described.
# as §9
Substance,"Number of Ia+ cells per mm^2 of epidermis, batch 1 (Ia+ Langerhans cells; dose 0.10 Nanog.)","Number of Ia+ cells per mm^2 of epidermis, batch 2 (Ia+ Langerhans cells; dose 0.10 Nanog.)","Number of Ia+ cells per mm^2 of epidermis, batch 3 (Ia+ Langerhans cells; dose 0.10 Nanog.)","Number of Ia+ cells per mm^2 of epidermis, batch 4 (Ia+ Langerhans cells; dose 0.10 Nanog.)","Number of Ia+ cells per mm^2 of epidermis, Mean (Ia+ Langerhans cells; dose 0.10 Nanog.)",Ia+ cells % (Ia+ Langerhans cells; dose 0.10 Nanog.),"Number of Ia+ cells per mm^2 of epidermis, batch 1 (Ia+ Langerhans cells; dose 0.50 Nanog.)","Number of Ia+ cells per mm^2 of epidermis, batch 2 (Ia+ Langerhans cells; dose 0.50 Nanog.)","Number of Ia+ cells per mm^2 of epidermis, batch 3 (Ia+ Langerhans cells; dose 0.50 Nanog.)","Number of Ia+ cells per mm^2 of epidermis, batch 4 (Ia+ Langerhans cells; dose 0.50 Nanog.)","Number of Ia+ cells per mm^2 of epidermis, Mean (Ia+ Langerhans cells; dose 0.50 Nanog.)",Ia+ cells % (Ia+ Langerhans cells; dose 0.50 Nanog.),"Number of Ia+ cells per mm^2 of epidermis, batch 1 (Ia+ Langerhans cells; dose 1.00 Nanog.)","Number of Ia+ cells per mm^2 of epidermis, batch 2 (Ia+ Langerhans cells; dose 1.00 Nanog.)","Number of Ia+ cells per mm^2 of epidermis, batch 3 (Ia+ Langerhans cells; dose 1.00 Nanog.)","Number of Ia+ cells per mm^2 of epidermis, batch 4 (Ia+ Langerhans cells; dose 1.00 Nanog.)","Number of Ia+ cells per mm^2 of epidermis, Mean (Ia+ Langerhans cells; dose 1.00 Nanog.)",Ia+ cells % (Ia+ Langerhans cells; dose 1.00 Nanog.),"Number of Thy 1.2+ cells per mm^2 of epidermis, batch 1 ([1]; dose 0.10 Nanog.)","Number of Thy 1.2+ cells per mm^2 of epidermis, batch 2 ([1]; dose 0.10 Nanog.)",further results
"A-Arg-Lys-Asp-Val-NH2 (RKDV; not fully specified (N-terminus, C-terminus)) [ETF-XIX, A not specified for the tested sample]",360 cells per mm^2,390 cells per mm^2,378 cells per mm^2,320 cells per mm^2,362.00 cells per mm^2,253%,388 cells per mm^2,398 cells per mm^2,386 cells per mm^2,400 cells per mm^2,393.00 cells per mm^2,283%,400 cells per mm^2,410 cells per mm^2,438 cells per mm^2,415 cells per mm^2,415.75 cells per mm^2,306%,216 cells per mm^2,210 cells per mm^2,"Number of Thy 1.2+ cells per mm^2 of epidermis, batch 3 ([1]; dose 0.10 Nanog.): 219 cells per mm^2; Number of Thy 1.2+ cells per mm^2 of epidermis, batch 4 ([1]; dose 0.10 Nanog.): 212 cells per mm^2; Number of Thy 1.2+ cells per mm^2 of epidermis, Mean ([1]; dose 0.10 Nanog.): 214.25 cells per mm^2; Thy 1.2+ cells % T ([1]; dose 0.10 Nanog.): 143%; Number of Thy 1.2+ cells per mm^2 of epidermis, batch 1 ([1]; dose 0.50 Nanog.): 220 cells per mm^2; Number of Thy 1.2+ cells per mm^2 of epidermis, batch 2 ([1]; dose 0.50 Nanog.): 215 cells per mm^2; Number of Thy 1.2+ cells per mm^2 of epidermis, batch 3 ([1]; dose 0.50 Nanog.): 228 cells per mm^2; Number of Thy 1.2+ cells per mm^2 of epidermis, batch 4 ([1]; dose 0.50 Nanog.): 216 cells per mm^2; Number of Thy 1.2+ cells per mm^2 of epidermis, Mean ([1]; dose 0.50 Nanog.): 219.75 cells per mm^2; Thy 1.2+ cells % T ([1]; dose 0.50 Nanog.): 149%; Number of Thy 1.2+ cells per mm^2 of epidermis, batch 1 ([1]; dose 1.00 Nanog.): 227 cells per mm^2; Number of Thy 1.2+ cells per mm^2 of epidermis, batch 2 ([1]; dose 1.00 Nanog.): 238 cells per mm^2; Number of Thy 1.2+ cells per mm^2 of epidermis, batch 3 ([1]; dose 1.00 Nanog.): 230 cells per mm^2; Number of Thy 1.2+ cells per mm^2 of epidermis, batch 4 ([1]; dose 1.00 Nanog.): 225 cells per mm^2; Number of Thy 1.2+ cells per mm^2 of epidermis, Mean ([1]; dose 1.00 Nanog.): 230.00 cells per mm^2; Thy 1.2+ cells % T ([1]; dose 1.00 Nanog.): 161%"
"A-Pyr-Ala-Lys-Ser-Gln-Gly-Gly-Ser-Asn-NH2 (AKSQGGSN; not fully specified (N-terminus, C-terminus); printed as A-Pyr-Ala-Lys-Ser-Gln-Gly-Gly-Ser-Asn-NH2) [ETF-I, A of the tested sample not restated]",368 cells per mm^2,388 cells per mm^2,378 cells per mm^2,395 cells per mm^2,382.25 cells per mm^2,273%,360 cells per mm^2,392 cells per mm^2,386 cells per mm^2,399 cells per mm^2,384.25 cells per mm^2,275%,372 cells per mm^2,410 cells per mm^2,390 cells per mm^2,412 cells per mm^2,396.00 cells per mm^2,286%,197 cells per mm^2,180 cells per mm^2,"Number of Thy 1.2+ cells per mm^2 of epidermis, batch 3 ([1]; dose 0.10 Nanog.): 192 cells per mm^2; Number of Thy 1.2+ cells per mm^2 of epidermis, batch 4 ([1]; dose 0.10 Nanog.): 207 cells per mm^2; Number of Thy 1.2+ cells per mm^2 of epidermis, Mean ([1]; dose 0.10 Nanog.): 194.00 cells per mm^2; Thy 1.2+ cells % T ([1]; dose 0.10 Nanog.): 120%; Number of Thy 1.2+ cells per mm^2 of epidermis, batch 1 ([1]; dose 0.50 Nanog.): 200 cells per mm^2; Number of Thy 1.2+ cells per mm^2 of epidermis, batch 2 ([1]; dose 0.50 Nanog.): 208 cells per mm^2; Number of Thy 1.2+ cells per mm^2 of epidermis, batch 3 ([1]; dose 0.50 Nanog.): 199 cells per mm^2; Number of Thy 1.2+ cells per mm^2 of epidermis, batch 4 ([1]; dose 0.50 Nanog.): 219 cells per mm^2; Number of Thy 1.2+ cells per mm^2 of epidermis, Mean ([1]; dose 0.50 Nanog.): 206.50 cells per mm^2; Thy 1.2+ cells % T ([1]; dose 0.50 Nanog.): 134%; Number of Thy 1.2+ cells per mm^2 of epidermis, batch 1 ([1]; dose 1.00 Nanog.): 214 cells per mm^2; Number of Thy 1.2+ cells per mm^2 of epidermis, batch 2 ([1]; dose 1.00 Nanog.): 210 cells per mm^2; Number of Thy 1.2+ cells per mm^2 of epidermis, batch 3 ([1]; dose 1.00 Nanog.): 208 cells per mm^2; Number of Thy 1.2+ cells per mm^2 of epidermis, batch 4 ([1]; dose 1.00 Nanog.): 226 cells per mm^2; Number of Thy 1.2+ cells per mm^2 of epidermis, Mean ([1]; dose 1.00 Nanog.): 214.50 cells per mm^2; Thy 1.2+ cells % T ([1]; dose 1.00 Nanog.): 143%"
"A-Arg-Lys-Asp-Val-Tyr-NH2 (RKDVY; not fully specified (N-terminus, C-terminus)) [ETF-XV, A not specified for the tested sample; b149 names acetic acid-Arg-Lys-Asp-Val-Tyr-NH2]",315 cells per mm^2,326 cells per mm^2,320 cells per mm^2,330 cells per mm^2,322.75 cells per mm^2,215%,305 cells per mm^2,345 cells per mm^2,330 cells per mm^2,345 cells per mm^2,331.25 cells per mm^2,223%,348 cells per mm^2,360 cells per mm^2,348 cells per mm^2,350 cells per mm^2,351.50 cells per mm^2,243%,160 cells per mm^2,158 cells per mm^2,"Number of Thy 1.2+ cells per mm^2 of epidermis, batch 3 ([1]; dose 0.10 Nanog.): 160 cells per mm^2; Number of Thy 1.2+ cells per mm^2 of epidermis, batch 4 ([1]; dose 0.10 Nanog.): 170 cells per mm^2; Number of Thy 1.2+ cells per mm^2 of epidermis, Mean ([1]; dose 0.10 Nanog.): 162.00 cells per mm^2; Thy 1.2+ cells % T ([1]; dose 0.10 Nanog.): 84%; Number of Thy 1.2+ cells per mm^2 of epidermis, batch 1 ([1]; dose 0.50 Nanog.): 176 cells per mm^2; Number of Thy 1.2+ cells per mm^2 of epidermis, batch 2 ([1]; dose 0.50 Nanog.): 168 cells per mm^2; Number of Thy 1.2+ cells per mm^2 of epidermis, batch 3 ([1]; dose 0.50 Nanog.): 170 cells per mm^2; Number of Thy 1.2+ cells per mm^2 of epidermis, batch 4 ([1]; dose 0.50 Nanog.): 186 cells per mm^2; Number of Thy 1.2+ cells per mm^2 of epidermis, Mean ([1]; dose 0.50 Nanog.): 175.00 cells per mm^2; Thy 1.2+ cells % T ([1]; dose 0.50 Nanog.): 98%; Number of Thy 1.2+ cells per mm^2 of epidermis, batch 1 ([1]; dose 1.00 Nanog.): 198 cells per mm^2; Number of Thy 1.2+ cells per mm^2 of epidermis, batch 2 ([1]; dose 1.00 Nanog.): 180 cells per mm^2; Number of Thy 1.2+ cells per mm^2 of epidermis, batch 3 ([1]; dose 1.00 Nanog.): 188 cells per mm^2; Number of Thy 1.2+ cells per mm^2 of epidermis, batch 4 ([1]; dose 1.00 Nanog.): 199 cells per mm^2; Number of Thy 1.2+ cells per mm^2 of epidermis, Mean ([1]; dose 1.00 Nanog.): 191.25 cells per mm^2; Thy 1.2+ cells % T ([1]; dose 1.00 Nanog.): 117%"
